Measurements from ChEMBL document CHEMBL5465560, “Selectivity Literature for EUbOPEN Chemogenomic Library” (2024).
Values belong to the compound of their own block, whether it stands above or below them.

Assays:
[1] = target: T1, SNF-related serine/threonine-protein kinase (Homo sapiens) (UniProt Q9NRH2); assay: Selectivity interaction (Ambit KINOMEscan and KiNATiv profiling in Jurkat cells) EUB0000090b SNRK; type: cell-based; conditions: at 1 µM
T1 sequence (whole entry): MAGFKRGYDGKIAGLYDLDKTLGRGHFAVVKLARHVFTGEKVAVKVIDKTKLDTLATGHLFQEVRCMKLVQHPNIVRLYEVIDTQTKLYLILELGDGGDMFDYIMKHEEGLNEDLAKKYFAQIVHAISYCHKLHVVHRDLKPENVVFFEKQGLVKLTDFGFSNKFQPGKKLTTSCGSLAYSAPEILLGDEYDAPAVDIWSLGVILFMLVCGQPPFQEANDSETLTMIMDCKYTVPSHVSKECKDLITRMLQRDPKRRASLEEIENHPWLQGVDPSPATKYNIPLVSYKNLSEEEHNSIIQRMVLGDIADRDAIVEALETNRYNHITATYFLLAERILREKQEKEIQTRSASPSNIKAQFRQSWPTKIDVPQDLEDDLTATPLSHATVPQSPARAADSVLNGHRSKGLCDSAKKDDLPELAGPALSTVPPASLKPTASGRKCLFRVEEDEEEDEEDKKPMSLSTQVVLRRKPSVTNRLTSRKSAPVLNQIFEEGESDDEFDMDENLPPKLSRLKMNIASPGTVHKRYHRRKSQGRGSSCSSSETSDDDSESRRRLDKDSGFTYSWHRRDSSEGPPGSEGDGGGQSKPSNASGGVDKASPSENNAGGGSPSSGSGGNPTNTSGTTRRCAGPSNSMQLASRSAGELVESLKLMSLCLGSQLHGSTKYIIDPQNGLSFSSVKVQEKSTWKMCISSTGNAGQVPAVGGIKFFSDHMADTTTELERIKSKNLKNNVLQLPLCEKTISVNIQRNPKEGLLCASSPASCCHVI

[2] = target: Tyrosine-protein kinase ABL2 (Homo sapiens, UniProt P42684); assay: Selectivity interaction (ActivX KiNativ screen (kinase selectivity in THP-1 cell lysates)) EUB0000639a ABL2; type: subcellular; conditions: lysate, at 0.04 µM
Tyrosine-protein kinase ABL2, sequence (P42684 whole entry): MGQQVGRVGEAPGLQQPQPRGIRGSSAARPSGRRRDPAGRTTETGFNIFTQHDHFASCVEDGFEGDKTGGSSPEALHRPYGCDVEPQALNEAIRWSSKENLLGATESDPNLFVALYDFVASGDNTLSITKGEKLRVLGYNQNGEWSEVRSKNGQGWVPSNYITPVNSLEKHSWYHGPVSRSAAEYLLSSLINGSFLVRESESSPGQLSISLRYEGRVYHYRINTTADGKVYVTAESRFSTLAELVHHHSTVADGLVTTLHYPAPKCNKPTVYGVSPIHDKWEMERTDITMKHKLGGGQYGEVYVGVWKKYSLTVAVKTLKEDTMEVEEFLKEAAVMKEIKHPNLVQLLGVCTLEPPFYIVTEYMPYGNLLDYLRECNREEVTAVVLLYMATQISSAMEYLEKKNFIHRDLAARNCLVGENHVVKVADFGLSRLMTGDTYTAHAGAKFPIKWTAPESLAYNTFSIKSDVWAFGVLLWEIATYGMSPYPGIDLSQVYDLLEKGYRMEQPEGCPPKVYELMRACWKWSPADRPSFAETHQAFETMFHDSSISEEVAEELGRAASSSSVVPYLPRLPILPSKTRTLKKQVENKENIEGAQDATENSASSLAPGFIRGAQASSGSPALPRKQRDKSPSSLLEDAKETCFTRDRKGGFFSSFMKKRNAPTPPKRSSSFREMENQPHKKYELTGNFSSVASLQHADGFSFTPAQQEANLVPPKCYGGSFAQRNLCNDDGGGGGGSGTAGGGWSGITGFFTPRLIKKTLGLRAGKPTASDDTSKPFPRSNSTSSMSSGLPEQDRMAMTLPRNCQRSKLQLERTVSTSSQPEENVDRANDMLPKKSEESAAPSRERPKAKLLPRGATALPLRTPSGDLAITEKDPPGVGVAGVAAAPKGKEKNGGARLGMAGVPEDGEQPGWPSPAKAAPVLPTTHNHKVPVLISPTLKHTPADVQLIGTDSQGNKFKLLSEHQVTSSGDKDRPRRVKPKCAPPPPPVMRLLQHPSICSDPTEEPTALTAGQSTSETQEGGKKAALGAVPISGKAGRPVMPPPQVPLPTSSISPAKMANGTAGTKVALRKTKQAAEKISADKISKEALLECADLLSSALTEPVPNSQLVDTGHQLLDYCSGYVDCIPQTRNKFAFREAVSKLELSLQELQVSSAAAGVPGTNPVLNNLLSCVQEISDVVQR

[3] = target: T2, Ribosomal protein S6 kinase delta-1 (Homo sapiens) (UniProt Q96S38); assay: Selectivity interaction (ActivX KiNativ screen (kinase selectivity in THP-1 cell lysates)) EUB0000639a RPS6KC1; type: subcellular; conditions: lysate
T2 sequence (whole entry): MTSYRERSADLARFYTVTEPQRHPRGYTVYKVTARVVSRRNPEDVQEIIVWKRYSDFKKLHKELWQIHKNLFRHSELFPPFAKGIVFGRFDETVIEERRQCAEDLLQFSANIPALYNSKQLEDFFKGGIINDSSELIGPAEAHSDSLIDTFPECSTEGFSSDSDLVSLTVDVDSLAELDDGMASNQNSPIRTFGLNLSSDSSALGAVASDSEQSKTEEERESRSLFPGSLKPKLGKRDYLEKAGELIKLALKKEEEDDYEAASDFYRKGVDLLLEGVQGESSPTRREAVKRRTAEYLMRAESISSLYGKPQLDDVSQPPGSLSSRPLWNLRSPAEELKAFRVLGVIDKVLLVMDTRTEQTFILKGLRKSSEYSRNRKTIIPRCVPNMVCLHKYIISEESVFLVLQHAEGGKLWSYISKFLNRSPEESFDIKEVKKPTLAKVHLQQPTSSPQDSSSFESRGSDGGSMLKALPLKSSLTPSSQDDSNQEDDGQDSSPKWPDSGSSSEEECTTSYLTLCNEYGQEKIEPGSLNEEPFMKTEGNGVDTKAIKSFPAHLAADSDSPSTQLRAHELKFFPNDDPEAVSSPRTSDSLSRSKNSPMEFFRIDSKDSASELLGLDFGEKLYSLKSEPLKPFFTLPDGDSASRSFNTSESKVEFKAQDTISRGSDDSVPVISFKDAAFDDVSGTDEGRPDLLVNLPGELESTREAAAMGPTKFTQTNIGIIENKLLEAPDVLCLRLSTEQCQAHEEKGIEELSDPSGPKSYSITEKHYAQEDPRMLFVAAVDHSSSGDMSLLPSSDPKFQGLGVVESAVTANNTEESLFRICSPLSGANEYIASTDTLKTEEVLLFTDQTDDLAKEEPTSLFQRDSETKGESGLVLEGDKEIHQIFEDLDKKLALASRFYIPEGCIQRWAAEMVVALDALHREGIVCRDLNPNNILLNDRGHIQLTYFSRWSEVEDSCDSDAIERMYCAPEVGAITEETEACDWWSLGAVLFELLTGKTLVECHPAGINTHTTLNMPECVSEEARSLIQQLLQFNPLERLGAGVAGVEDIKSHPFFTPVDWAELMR

[4] = target: T3, Inhibitor of nuclear factor kappa-B kinase subunit alpha (Homo sapiens) (UniProt O15111); assay: Selectivity interaction (KinomeScan (DiscoverX)) EUB0000045b CHUK
T3 sequence (whole entry): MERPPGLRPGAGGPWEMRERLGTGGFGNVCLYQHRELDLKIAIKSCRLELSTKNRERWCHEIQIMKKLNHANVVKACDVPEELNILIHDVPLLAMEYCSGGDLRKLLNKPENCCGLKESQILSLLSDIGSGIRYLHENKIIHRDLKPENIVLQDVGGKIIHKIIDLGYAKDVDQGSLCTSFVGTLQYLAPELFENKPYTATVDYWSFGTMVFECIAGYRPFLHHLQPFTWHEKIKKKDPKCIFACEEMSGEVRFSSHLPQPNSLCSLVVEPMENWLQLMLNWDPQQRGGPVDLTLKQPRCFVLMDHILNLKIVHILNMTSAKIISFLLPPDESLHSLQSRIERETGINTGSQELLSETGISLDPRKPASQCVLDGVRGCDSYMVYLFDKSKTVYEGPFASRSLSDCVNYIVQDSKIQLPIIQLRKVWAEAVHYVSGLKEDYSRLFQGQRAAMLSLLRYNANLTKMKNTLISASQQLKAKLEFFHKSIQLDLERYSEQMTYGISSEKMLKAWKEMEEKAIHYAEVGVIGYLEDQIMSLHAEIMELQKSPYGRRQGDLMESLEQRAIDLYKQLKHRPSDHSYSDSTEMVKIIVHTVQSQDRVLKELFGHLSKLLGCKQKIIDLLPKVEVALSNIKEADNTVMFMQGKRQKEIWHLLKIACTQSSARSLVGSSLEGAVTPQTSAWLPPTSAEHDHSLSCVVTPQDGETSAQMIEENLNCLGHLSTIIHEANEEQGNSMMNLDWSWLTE

[5] = Selectivity interaction (KinomeScan (DiscoverX)) EUB0000607a CDK2H; conditions: at 10 µM

SMILES: CN(C)C/C=C/C(=O)Nc1ccc(C(=O)N2CCCC(Nc3ncc(Cl)c(-c4c[nH]c5ccccc45)n3)C2)cc1 (stereo not given)
% of control [1]: 93%

% of inhibition [2]: -16.4% | % of inhibition ([3]; at 0.01 µM): 11.8% | % of inhibition ([3]; at 0.04 µM): -10.9% | % of inhibition ([3]; at 0.2 µM): -1.8% | % of inhibition ([3]; at 1 µM): 9.6% | % of inhibition ([3]; at 5 µM): 8.3%
SMILES: CC[C@@H]1[C@H](F)C(=O)N[C@@H]1COc1nccc2cc(C(N)=O)c(OC)cc12 [ZIMLOVISERTIB]

SMILES: C=CC(=O)Nc1cc(-n2c(=O)ccc3cnc4ccc(-c5ccc(NS(C)(=O)=O)cc5)cc4c32)ccc1C
% of control ([4]; at 1 µM): 100% | % of control ([4]; at 10 µM): 100%

SMILES: CNC(=O)Nc1ccc(-c2nc(N3CC4CCC(C3)O4)c3cnn(C4CCC5(CC4)OCCO5)c3n2)cc1
% of control [5]: 100%
